What follows are molecules tested against catalytic domain of human Bub1 (amino acids 704-1085) (Homo sapiens (Human), UniProt O43683) (assay: Bub1 kinase assay (TR-FRET)). Settings: 10 μM ATP, 1 μM peptide substrate; read-out: Biological Assay 1: Bub1 kinase assay median IC50.
Type: biochemical
Protocol: To this end, 100-fold concentrated compound solutions (in DMSO) were previously prepared by serial dilution (1:3.4) of 2 mM stocks in a clear low volume 384-well source microtiter plate (Greiner Bio-One, Frickenhausen, Germany), from which 50 nl of compounds were transferred into a black low volume test microtiter plate from the same supplier. […] The resulting mixture (5 μl final volume) was incubated at 22° C. during 60 min., and the reaction was stopped by the addition of 5 μl of an aqueous EDTA-solution (50 mM EDTA, in 100 mM HEPES pH 7.5 and 0.2% (w/v) bovine serum albumin) which also contained the TR-FRET detection reagents (0.2 μM streptavidin-XL665 [Cisbio Bioassays, Codolet, France] and 1 nM anti-phosho-Serine antibody [Merck Millipore, cat. #35-001] and 0.4 nM LANCE EU-W1024 labeled anti-mouse IgG antibody [Perkin-Elmer, product no. AD0077, alternatively a Terbium-cryptate-labeled anti-mouse IgG antibody from Cisbio Bioassays can be used]). The stopped reaction mixture was further incubated 1 h at 22° C. in order to allow the formation of complexes between peptides and detection reagents. Subsequently, the amount of product was evaluated by measurement of the resonance energy transfer from the Eu-chelate-antlbody complex recognizing the Phosphoserlne residue to the streptavidin-XL665 bound to the biotin moiety of the peptide. […] IC50 values were calculated by fitting the normalized inhibition data to a 4-parameter logistic equation (Minimum, Maximum, IC50, Hill; Y=Max+(Min−Max)/(1+(X/IC50)Hill)) using a Bayer-proprietary analysis software.

Chain of catalytic domain of human Bub1 (amino acids 704-1085) (O43683 704-1085): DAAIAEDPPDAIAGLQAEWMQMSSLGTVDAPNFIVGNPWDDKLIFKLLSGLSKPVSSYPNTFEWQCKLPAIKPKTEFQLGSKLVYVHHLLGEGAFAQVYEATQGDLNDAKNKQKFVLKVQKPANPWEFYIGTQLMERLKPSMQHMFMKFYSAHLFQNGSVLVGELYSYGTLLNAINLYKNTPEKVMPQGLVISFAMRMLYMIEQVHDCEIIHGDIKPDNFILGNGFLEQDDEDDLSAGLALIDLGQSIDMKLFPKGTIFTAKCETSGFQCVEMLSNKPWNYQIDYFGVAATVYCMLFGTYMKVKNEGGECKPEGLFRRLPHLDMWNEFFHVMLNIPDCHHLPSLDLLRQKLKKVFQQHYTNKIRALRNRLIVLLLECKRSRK

`COc1cnc(-c2nn(Cc3cccc(-n4cccc4)c3)c3ccccc23)nc1Nc1ccncc1` [Example 2-1-3, 5-methoxy-N-(pyridin-4-yl)-2-{1-[3-(1H-pyrrol-1-yl)benzyl]-1H-indazol-3-yl}pyrimidin-4-amine] and `COc1cnc(-c2nn(Cc3cccc(C#N)c3)c3ccccc23)nc1Nc1ccncc1` [Example 2-45-1, 3-({3-[5-methoxy-4-(pyridin-4-ylamino)pyrimidin-2-yl]-1H-indazol-1-yl}methyl)benzonitrile] are within 1.5-fold of each other in IC50: 120 nM for the first, 110 nM for the second.

Compared with `COc1cnc(-c2nn(Cc3cccc(-c4noc(C)n4)c3)c3ccccc23)nc1Nc1ccncc1` [Example 2-2-3, 5-methoxy-2-{1-[3-(5-methyl-1,2,4-oxadiazol-3-yl)benzyl]-1H-indazol-3-yl}-N-(pyridin-4-yl)pyrimidin-4-amine], `COc1cnc(-c2nn(Cc3c(F)cccc3OC)c3ccccc23)nc1Nc1ccncc1` [Example 2-49-1, 2-[1-(2-fluoro-6-methoxybenzyl)-1H-indazol-3-yl]-5-methoxy-N-(pyridin-4-yl)pyrimidin-4-amine] is 60-fold higher in IC50: 25 nM for the first, 1500 nM for the second. The first is the more potent here.

First: COc1cnc(-c2nn(Cc3c(F)ccc(OC)c3F)c3ccccc23)nc1N(Cc1c(F)ccc(OC)c1F)c1ccncc1 [Example 2-4-2, N-(2,6-difluoro-3-methoxybenzyl)-2-[1-(2,6-difluoro-3-methoxybenzyl)-1H-indazol-3-yl]-5-methoxy-N-(pyridin-4-yl)pyrimidin-4-amine]
Second: COc1cnc(-c2nn(Cc3c(F)cccc3F)c3ccccc23)nc1N(Cc1c(F)cccc1F)c1ccncc1 [Example 2-7-2, N-(2,6-difluorobenzyl)-2-[1-(2,6-difluorobenzyl)-1H-indazol-3-yl]-5-methoxy-N-(pyridin-4-yl)pyrimidin-4-amine]
The IC50 of the first is 17-fold higher: 3500 nM for the first, 210 nM for the second.

`CCOc1cc(F)c(CN(c2ccncc2)c2nc(-c3nn(Cc4c(F)cc(OCC)cc4F)c4ccccc34)ncc2OC)c(F)c1` [Example 2-5-2, N-(4-ethoxy-2,6-difluorobenzyl)-2-[1-(4-ethoxy-2,6-difluorobenzyl)-1H-indazol-3-yl]-5-methoxy-N-(pyridin-4-yl)pyrimidin-4-amine] and `COc1cnc(-c2nn(Cc3c(F)cc(OC(F)F)cc3F)c3ccccc23)nc1N(Cc1c(F)cc(OC(F)F)cc1F)c1ccncc1` [Example 2-39-2, N-[4-(difluoromethoxy)-2,6-difluorobenzyl]-2-{1-[4-(difluoromethoxy)-2,6-difluorobenzyl]-1H-indazol-3-yl}-5-methoxy-N-(pyridin-4-yl)pyrimidin-4-amine] are within 1.5-fold of each other in IC50: 9300 nM for the first, 6900 nM for the second.

Going from `COc1cnc(-c2nn(Cc3ccc(C)c(F)c3F)c3ccccc23)nc1N(Cc1ccc(C)c(F)c1F)c1ccncc1` [Example 2-8-2, N-(2,3-difluoro-4-methylbenzyl)-2-[1-(2,3-difluoro-4-methylbenzyl)-1H-indazol-3-yl]-5-methoxy-N-(pyridin-4-yl)pyrimidin-4-amine] to `CCOc1ccc(CN(c2ccncc2)c2nc(-c3nn(Cc4ccc(OCC)c(F)c4F)c4ccccc34)ncc2OC)c(F)c1F` [Example 2-14-2, N-(4-ethoxy-2,3-difluorobenzyl)-2-[1-(4-ethoxy-2,3-difluorobenzyl)-1H-indazol-3-yl]-5-methoxy-N-(pyridin-4-yl)pyrimidin-4-amine], the IC50 rises from 290 nM to 730 nM (2.5-fold).

Going from `COc1cnc(-c2nn(Cc3c(Cl)cccc3Cl)c3ccccc23)nc1N(Cc1c(Cl)cccc1Cl)c1ccncc1` [Example 2-9-2, N-(2,6-dichlorobenzyl)-2-[1-(2,6-dichlorobenzyl)-1H-indazol-3-yl]-5-methoxy-N-(pyridin-4-yl)pyrimidin-4-amine] to `COc1cnc(-c2nn(Cc3ccccc3Cl)c3ccccc23)nc1N(Cc1ccccc1Cl)c1ccncc1` [Example 2-10-2, N-(2-chlorobenzyl)-2-[1-(2-chlorobenzyl)-1H-indazol-3-yl]-5-methoxy-N-(pyridin-4-yl)pyrimidin-4-amine], the IC50 rises from 240 nM to 1200 nM (5-fold). The first is the more potent here.

Compared with `COc1cnc(-c2nn(Cc3ccc(SC(F)(F)F)cc3)c3ccccc23)nc1Nc1ccncc1` [Example 2-9-3, 5-methoxy-N-(pyridin-4-yl)-2-(1-{4-[(trifluoromethyl)sulfanyl]benzyl}-1H-indazol-3-yl)pyrimidin-4-amine], `COc1cc(C(F)(F)F)ccc1Cn1nc(-c2ncc(OC)c(Nc3ccncc3)n2)c2ccccc21` [Example 2-47-1, 5-methoxy-2-{1-[2-methoxy-4-(trifluoromethyl)benzyl]-1H-indazol-3-yl}-N-(pyridin-4-yl)pyrimidin-4-amine] is 8.3-fold lower in IC50: 20000 nM for the first, 2400 nM for the second. The second is the more potent here.

First: COc1cnc(-c2nn(Cc3ccccc3Br)c3ccccc23)nc1N(Cc1ccccc1Br)c1ccncc1 [Example 2-21-2, N-(2-bromobenzyl)-2-[1-(2-bromobenzyl)-1H-indazol-3-yl]-5-methoxy-N-(pyridin-4-yl)pyrimidin-4-amine]
Second: COc1cnc(-c2nn(Cc3ccccc3F)c3ccccc23)nc1N(c1ccncc1)c1ccncc1 [Example 24-4]
The IC50 of the first is 4.7-fold higher: 20000 nM for the first, 4280 nM for the second.

First: COc1cnc(-c2nn(Cc3ccc(CC(=O)O)cc3F)c3ccccc23)nc1Nc1ccncc1 [Example 2-22-1, [3-fluoro-4-({3-[5-methoxy-4-(pyridin-4-ylamino)pyrimidin-2-yl]-1H-indazol-1-yl}methyl)phenyl]acetic acid]
Second: COc1cnc(-c2nn(Cc3ccc(C(C)(C)O)cc3Cl)c3ccccc23)nc1Nc1ccncc1 [Example 9-1, 2-[3-chloro-4-({3-[5-methoxy-4-(pyridin-4-ylamino)pyrimidin-2-yl]-1H-indazol-1-yl}methyl)phenyl]propan-2-ol]
The IC50 of the first is 330-fold higher: 3200 nM for the first, 9.8 nM for the second. The second is the more potent here.

First: COc1cnc(-c2nn(Cc3c(Cl)ccc([N+](=O)[O-])c3Cl)c3ccccc23)nc1Nc1ccncc1 [Example 2-44-1, 2-[1-(2,6-dichloro-3-nitrobenzyl)-1H-indazol-3-yl]-5-methoxy-N-(pyridin-4-yl)pyrimidin-4-amine]
Second: COc1cnc(-c2nn(Cc3c(Cl)ccc(C(=O)O)c3Cl)c3ccccc23)nc1Nc1ccncc1 [Example 19-1, 2,4-dichloro-3-({3-[5-methoxy-4-(pyridin-4-ylamino)pyrimidin-2-yl]-1H-indazol-1-yl}methyl)benzoic acid]
The IC50 of the first is 490-fold lower: 41 nM for the first, 20000 nM for the second.

First: OCC1(COc2cnc(-c3nn(Cc4ccccc4F)c4ccccc34)nc2N(CC2(CO)COC2)c2ccncc2)COC1 [Example 4-2-2, (3-{[(2-[1-(2-fluorobenzyl)-1H-indazol-3-yl]-5-{[3-(hydroxymethyl)oxetan-3-yl]methoxy}pyrimidin-4-yl)(pyridin-4-yl)amino]methyl}oxetan-3-yl)methanol]
Second: OCC1COc2cnc(-c3nn(Cc4ccccc4F)c4ccccc34)nc2N1c1ccncc1 (centres unmarked) [Example 22-1, {2-[1-(2-fluorobenzyl)-1H-indazol-3-yl]-8-(pyridin-4-yl)-7,8-dihydro-6H-pyrimido[5,4-b][1,4]oxazin-7-yl}methanol]
The IC50 of the first is 1.8-fold lower: 430 nM for the first, 770 nM for the second.

Compared with `Fc1ccccc1Cn1nc(-c2ncc(OCCc3nnn[nH]3)c(N(CCc3nnn[nH]3)c3ccncc3)n2)c2ccccc21` [Example 4-5-2, 2-[1-(2-fluorobenzyl)-1H-indazol-3-yl]-N-(pyridin-4-yl)-5-[2-(1H-tetrazol-5-yl)ethoxy]-N-[2-(1H-tetrazol-5-yl)ethyl]pyrimidin-4-amine], `CC(C)(C)OC(=O)NCCOCCOc1cnc(-c2nn(Cc3ccccc3F)c3ccccc23)nc1Nc1ccncc1` [Example 4-20, tert-butyl {2-[2-({2-[1-(2-fluorobenzyl)-1H-indazol-3-yl]-4-(pyridin-4-ylamino)pyrimidin-5-yl}oxy)ethoxy]ethyl}carbamate] is 1.6-fold lower in IC50: 330 nM for the first, 210 nM for the second. The second is the more potent here.

First: CCOc1cc(F)c(Cn2nc(-c3ncc(OCC4CN(C(=O)OC(C)(C)C)CCO4)c(Nc4ccncc4)n3)c3ccccc32)c(F)c1 (centres unmarked) [Example 4-11, tert-butyl 2-[({2-[1-(4-ethoxy-2,6-difluorobenzyl)-1H-indazol-3-yl]-4-(pyridin-4-ylamino)pyrimidin-5-yl}oxy)methyl] morpholine-4-carboxylate]
Second: CCOc1cc(F)c(Cn2nc(-c3ncc(OC[C@@H]4CCC(=O)N4)c(Nc4ccncc4)n3)c3ccccc32)c(F)c1 [Example 4-18, formic acid - (5S)-5-[({2-[1-(4-ethoxy-2,6-difluorobenzyl)-1H-indazol-3-yl]-4-(pyridin-4-ylamino)pyrimidin-5-yl}oxy)methyl] pyrrolidin-2-one (1:1)]
The IC50 of the first is 2-fold higher: 24 nM for the first, 12 nM for the second.

Going from `CNC(=O)c1cc(F)c(Cn2nc(-c3ncc(OC)c(Nc4ccncc4)n3)c3ccccc32)c(F)c1` [Example 20-6, 3,5-difluoro-4-({3-[5-methoxy-4-(pyridin-4-yla-mino)pyrimidin-2-yl]-1H-indazol-1-yl}methyl)-N-methylbenzamide] to `CCOc1cc(F)c(Cn2nc(-c3ncc(OC)c(Nc4ccncc4C#N)n3)c3ccccc32)c(F)c1` [Example 24-5, 4-({2-[1-(4-ethoxy-2,6-difluorobenzyl)-1H-indazol-3-yl]-5-methoxypyrimidin-4-yl}amino)pyridine-3-carbonitrile], the IC50 falls from 6700 nM to 11 nM (610-fold).

`COC(=O)c1cnccc1Nc1nc(-c2nn(Cc3ccccc3F)c3ccccc23)ncc1OC` [Example 24-2, methyl 4-({2-[1-(2-fluorobenzyl)-1H-indazol-3-yl]-5-methoxypyrimidin-4-yl}amino)pyridine-3-carboxylate] gave an IC50 of 20000 nM.

— patent US10266548B2, “Substituted benzylindazoles for use as Bub1 kinase inhibitors in the treatment of hyperproliferative diseases” (Bayer Intellectual Property GmbH, priority 2011, dated 2019)
